What is called EC50 is the concentration that produces a half-maximal response. The term IC50 denotes the midpoint of a concentration-inhibition curve.

Consider 25 compounds from patent publication US11524940B1, “Inhibitors of cysteine proteases and methods of use thereof” (priority 2020, dated 2022).

Where two headings read alike, the source gives them in different places.

The target of one experiment is 229E Mpro (Human coronavirus 229E (HCoV-229E), UniProt P0C6X1). The experiment in a line: 229E Mpro activity. The format is biochemical.
The next experiment concerns the target SARS-CoV2 Mpro (Severe acute respiratory syndrome coronavirus 2 (2019-nCoV) (SARS-CoV-2), UniProt P0DTD1). The experiment is described as follows: COVID-19 (SARS-CoV2) Mpro enzymatic assay. Conditions: 25 nM Mpro, 25 μM substrate. The format is biochemical.

Sequence of 229E Mpro (P0C6X1 2966-3267 limits assumed): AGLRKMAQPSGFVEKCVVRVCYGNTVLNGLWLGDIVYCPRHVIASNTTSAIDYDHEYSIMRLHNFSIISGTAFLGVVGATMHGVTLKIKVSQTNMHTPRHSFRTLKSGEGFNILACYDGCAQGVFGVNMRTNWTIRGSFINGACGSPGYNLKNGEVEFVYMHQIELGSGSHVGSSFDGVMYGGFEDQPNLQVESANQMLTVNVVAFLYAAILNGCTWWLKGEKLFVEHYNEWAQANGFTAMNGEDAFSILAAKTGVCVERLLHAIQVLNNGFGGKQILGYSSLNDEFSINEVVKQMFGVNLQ
Method for 229E Mpro: Compounds are assayed using standard methods to assess compound activity and IC50. […] The assay buffer contains 20 mM of Tris-HCl (pH 7.3), 100 mM of NaCl, 1 mM of EDTA, 5mM of TCEP and 0.1% BSA.

Consider `N#C[C@H](C[C@@H]1CCNC1=O)NC(=O)C1CC2(CCC2)CN1C(=O)c1cc2cccc(Cl)c2[nH]1` (single isomer, unassigned) [988 (Isomer 1)], for which the EC50 at 229E Mpro (read-out: 229E Mpro EC50) was above 30 µM. In addition, the half-maximal inhibitory concentration (IC50) at SARS-CoV2 Mpro is above 30 µM. Regarding `CC1(C)CCC(C[C@@H](C#N)NC(=O)C2CC3(CCCCC3)CN2C(=O)c2cc3cccc(Cl)c3[nH]2)C(=O)N1` (single isomer, unassigned) [928 (Isomer 3)], the EC50 on 229E Mpro (read-out: 229E Mpro EC50) was in the range of 2 to 10 µM. Further, the IC50 against SARS-CoV2 Mpro is below 2 µM. For `COc1cccc2[nH]c(C(=O)N3C[C@H](C)C[C@H]3C(=O)N[C@H](C#N)C[C@@H]3CCNC3=O)cc12` [Compound 413] the same measures were below 2 µM and 2 to 10 µM. `CC1(C)CC(C[C@@H](C#N)NC(=O)C2CC3(CCCCC3)CN2C(=O)c2cc3cccc(Cl)c3[nH]2)C(=O)N1` (single isomer, unassigned) [930 (Isomer 3)]: the concentration giving a half-maximal response (EC50) on 229E Mpro (read-out: 229E Mpro EC50) was below 2 µM. On SARS-CoV2 Mpro, this compound had an IC50 below 2 µM. Turning to `COc1cccc2[nH]c(C(=O)N[C@@H](CC3CC3)C(=O)N[C@H](C#N)Cc3ccccn3)cc12` [Compound 439, N-[(1S)-2-[[(1S)-1-cyano-2-(2-pyridyl)ethyl]amino]-1-(cyclopropylmethyl)-2-oxo-ethyl]-4-methoxy-1H-indole-2-carboxamide], the concentration for a half-maximal effect (EC50) on 229E Mpro (read-out: 229E Mpro EC50) is above 30 µM. Besides, the IC50 against SARS-CoV2 Mpro was in the range of 10 to 30 µM. As to `COc1cccc2[nH]c(C(=O)N[C@@H](CC3CC3(F)F)C(=O)N[C@H](C#N)C[C@@H]3CCCNC3=O)cc12` (single isomer, unassigned) [1059 (Isomer 1)], on 229E Mpro (read-out: 229E Mpro EC50), the half-maximal effective concentration (EC50) is below 2 µM. This compound also showed a half-inhibitory concentration (IC50) at SARS-CoV2 Mpro below 2 µM. In the case of `COc1cccc2[nH]c(C(=O)N3CC4(CCCCC4)CC3C(=O)N[C@H](C#N)CC3CCC(C)(C)NC3=O)cc12` (single isomer, unassigned) [1111 (Isomer 2)], the concentration giving a half-maximal response (EC50) at 229E Mpro (read-out: 229E Mpro EC50) was above 30 µM. This compound also yielded a half-inhibitory concentration (IC50) at SARS-CoV2 Mpro above 30 µM. Consider `COc1cccc2[nH]c(C(=O)N3Cc4ccccc4C3C(=O)N[C@H](C#N)C[C@@H]3CCNC3=O)cc12` (single isomer, unassigned) [429A (Isomer 2)], for which the EC50 on 229E Mpro (read-out: 229E Mpro EC50) was above 30 µM. Moreover, the IC50 against SARS-CoV2 Mpro was above 30 µM. Take `CC1(C)CC(C[C@@H](C#N)NC(=O)C2CC3(CCCCC3)CN2C(=O)c2cc3cccc(Cl)c3[nH]2)C(=O)N1` (single isomer, unassigned) [930 (Isomer 4)]: the EC50 at 229E Mpro (read-out: 229E Mpro EC50) fell in the range of 10 to 30 µM. For the same compound, the half-maximal inhibitory concentration (IC50) on SARS-CoV2 Mpro fell in the range of 2 to 10 µM. For the compound `COc1cccc2[nH]c(C(=O)N[C@H](CC(C)C)C(=O)N[C@@H](CC3CCNC3=O)C(=O)CO)cc12` (stereo partly drawn) [Compound 740, N-[(1R)-1-[[(1S)-3-hydroxy-2-oxo-1-[[(3S)-2-oxopyrrolidin-3-yl]methyl]propyl]carbamoyl]-3-methyl-butyl]-4-methoxy-1H-indole-2-carboxamide], the EC50 at 229E Mpro (229E Mpro EC50) lay within 10 to 30 µM. Take `COc1cccc2[nH]c(C(=O)N3CC4(CCCCC4)CC3C(=O)N[C@H](C#N)C[C@@H]3CCNC3=O)cc12` (single isomer, unassigned) [389A (Isomer 1)]: at 229E Mpro (read-out: 229E Mpro EC50), the EC50 is below 2 µM.

Regarding `N#C[C@H](C[C@@H]1CCNC1=O)NC(=O)[C@@H](CC1CC1)n1cccc(NCC(F)(F)F)c1=O` (single isomer, unassigned) [467 (Isomer 1)], the concentration for a half-maximal effect (EC50) on 229E Mpro (read-out: 229E Mpro EC50) is 2 to 10 µM. Turning to `N#C[C@H](C[C@@H]1CCCNC1=O)NC(=O)[C@H](CC1CC1)NC(=O)c1cc2c(Cl)cccc2[nH]1` [Compound 812, 4-chloro-N-[(1S)-2-[[(1S)-1-cyano-2-[(3S)-2-oxo-3-piperidyl]ethyl]amino]-1-(cyclopropylmethyl)-2-oxo-ethyl]-1H-indole-2-carboxamide], the half-maximal effective concentration (EC50) on 229E Mpro (read-out: 229E Mpro EC50) is below 2 µM. For `N#C[C@H](C[C@@H]1CCNC1=O)NC(=O)[C@H](CC1CC1)NC(=O)c1cc2c(Cl)ccc(Cl)c2[nH]1` [Compound 691, 4,7-dichloro-N-[(1S)-2-[[(1S)-1-cyano-2-[(3S)-2-oxopyrrolidin-3-yl]ethyl]amino]-1-(cyclopropylmethyl)-2-oxo-ethyl]-1H-indole-2-carboxamide], the EC50 at 229E Mpro (read-out: 229E Mpro EC50) was below 2 µM. Consider `COc1cccc2[nH]c(C(=O)N[C@@H](CC3CC3)C(=O)N[C@@]3(C#N)CCc4cccnc4C3)cc12` [Compound 279], for which, on 229E Mpro (read-out: 229E Mpro EC50), the EC50 is above 30 µM. With `COc1cccc2[nH]c(C(=O)N[C@H](C(=O)N[C@H](C#N)C[C@@H]3CCNC3=O)C3CC4CC4C3)cc12` (stereo partly shown) [Compound 499], the EC50 on 229E Mpro (read-out: 229E Mpro EC50) was below 2 µM. The same measure, in the same setting: with `COc1cccc2[nH]c(C(=O)N[C@@H](CC(C)C)C(=O)N[C@@H](C[C@@H]3CCNC3=O)C(C#N)Nc3ccccc3)cc12` (stereo partly drawn) [Compound 327, N-[(1S)-1-[[(1S)-2-anilino-2-cyano-1-[[(3S)-2-oxopyrrolidin-3-yl]methyl]ethyl]carbamoyl]-3-methyl-butyl]-4-methoxy-1H-indole-2-carboxamide] the figure was below 2 µM; with `COc1ccc2[nH]c(C(=O)N[C@@H](CC(C)(C)C)C(=O)N[C@H](C#N)C[C@@H]3CCCNC3=O)cc2c1Cl` [Compound 808, 4-chloro-N-[(1S)-1-[[(1S)-1-cyano-2-[(3S)-2-oxo-3-piperidyl]ethyl]carbamoyl]-3,3-dimethyl-butyl]-5-methoxy-1H-indole-2-carboxamide], below 2 µM; with `COc1cccc2[nH]c(C(=O)N[C@@H](CC3CC3)C(=O)N[C@](C)(C#N)CC3CCNC3=O)cc12` (single isomer, unassigned) [1055 (Isomer 1)], above 30 µM. The same measure, in the same setting: next, `N#C[C@H](C[C@@H]1CCCNC1=O)NC(=O)[C@H](CC1CC1)NC(=O)c1cc2c(Cl)cc(Cl)cc2[nH]1` [Compound 840, 4,6-dichloro-N-[(1S)-2-[[(1S)-1-cyano-2-[(3S)-2-oxo-3-piperidyl]ethyl]amino]-1-(cyclopropylmethyl)-2-oxo-ethyl]-1H-indole-2-carboxamide]: below 2 µM. Take `CC1(C)CC(C[C@@H](C#N)NC(=O)[C@H](CC2CC2)NC(=O)c2cc3cccc(Cl)c3[nH]2)C(=O)N1` (single isomer, unassigned) [1053 (Isomer 4)]: the IC50 against SARS-CoV2 Mpro was below 2 µM. As for `COc1cccc2[nH]c(C(=O)N3C[C@H](C(C)(C)C)C[C@H]3C(=O)N[C@H](C#N)C[C@@H]3CCNC3=O)cc12` [Compound 655, (2S,4S)-4-(tert-butyl)-N-((S)-1-cyano-2-((S)-2-oxopyrrolidin-3-yl)ethyl)-1-(4-methoxy-1H-indole-2-carbonyl)pyrrolidine-2-carboxamide], the EC50 on 229E Mpro (read-out: 229E Mpro EC50) was 10 to 30 µM. The same measure, in the same setting: next, `N#Cc1ccc2[nH]c(C(=O)N[C@@H](CC3CC3)C(=O)N[C@H](C#N)C[C@@H]3CCCNC3=O)cc2c1` [Compound 860]: below 2 µM; `N#C[C@H](C[C@@H]1CCCNC1=O)NC(=O)[C@H](CC1CC1)NC(=O)c1cc2cc(Cl)ccc2[nH]1` [Compound 633, 5-chloro-N-[(1S)-2-[[(1S)-1-cyano-2-[(3S)-2-oxo-3-piperidyl]ethyl]amino]-1-(cyclopropylmethyl)-2-oxo-ethyl]-1H-indole-2-carboxamide]: below 2 µM. `CCCN1C(=N)C([C@H](C[C@@H]2CCNC2=O)NC(=O)[C@H](CC(C)C)NC(=O)c2cc3c(OC)cccc3[nH]2)OC1=O` (stereo partly drawn) [Compound 355, N-((2S)-1-(((1 S)-1-(4-imino-2-oxo-3-propyloxazolidin-5-yl)-2-((S)-2-oxopyrrolidin-3-yl)ethyl)amino)-4-methyl-1-oxopentan-2-yl)-4-methoxy-1H-indole-2-carboxamide]: the EC50 on 229E Mpro (read-out: 229E Mpro EC50) is 2 to 10 µM.
